In patent publication US20140288044A1, “COMPOSITIONS AND THERAPEUTIC USES OF IKK-RELATED KINASE EPSILON AND TANKBINDING KINASE 1 INHIBITORS” (Alzheimer's Institute of America, Inc., priority 2011, published 2014):
Like-named read-outs stand apart in the source and are kept apart here.

Molecular target: T1, IKKε (Homo sapiens, UniProt Q14164)
T1 construct: His-tag (in-house Sf9 preparation) or GST-tag (purchased Invitrogen preparation); these are alternatives, not both on one protein; host or cells: Sf9 cells
T1 sequence (Q14164 1-716): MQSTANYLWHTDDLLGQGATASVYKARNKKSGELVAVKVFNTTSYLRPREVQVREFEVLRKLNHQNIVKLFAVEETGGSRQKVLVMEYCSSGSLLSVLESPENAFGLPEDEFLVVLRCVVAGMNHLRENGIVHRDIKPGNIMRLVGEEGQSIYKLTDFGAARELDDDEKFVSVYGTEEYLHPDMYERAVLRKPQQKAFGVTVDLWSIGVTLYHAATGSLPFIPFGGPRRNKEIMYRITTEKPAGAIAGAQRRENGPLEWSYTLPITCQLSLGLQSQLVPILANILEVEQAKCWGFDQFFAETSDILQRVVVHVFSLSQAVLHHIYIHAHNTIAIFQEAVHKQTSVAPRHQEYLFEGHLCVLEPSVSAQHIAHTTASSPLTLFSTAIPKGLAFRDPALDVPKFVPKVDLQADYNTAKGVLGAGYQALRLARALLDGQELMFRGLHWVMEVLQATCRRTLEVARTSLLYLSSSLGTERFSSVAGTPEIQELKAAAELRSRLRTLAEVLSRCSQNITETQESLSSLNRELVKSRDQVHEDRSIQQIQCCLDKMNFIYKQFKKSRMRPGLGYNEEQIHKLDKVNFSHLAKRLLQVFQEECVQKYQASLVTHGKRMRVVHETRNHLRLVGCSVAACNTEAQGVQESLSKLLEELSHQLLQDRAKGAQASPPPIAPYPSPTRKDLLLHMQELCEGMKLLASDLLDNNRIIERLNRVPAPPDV
Test: In-vitro IKKε kinase assay (radiolabelled ATP, filterplate)
Assay type: biochemical
Protocol: IKKε enzyme was produced as a His-tag fusion in Sf9 cells or purchased as a GST-tag fusion (Invitrogen, Carlsbad, Calif.). TBK1 enzyme was produced as a His-tag fusion in Sf9 cells. Kinase reactions were carried out in reaction buffer using myelin basic protein (Millipore, Ballerica, Mass.), casein or dephosphorylated casein (Sigma, St. Louis, Mo.) as substrate at an ATP concentration equal to twice the Km,ATP value for each enzyme, corresponding to 32 μM ATP for IKKε and 60 μM ATP for TBK1. Radiolabelled [γ^33]ATP (PerkinElmer, Waltham, Mass.) in the amount of […] (IKKe, “normal”) or 0.7 μCi (IKKε, “sensitized”) or 1.25 μCi (TBK1) was added to each assay. Final enzyme concentrations were 0.1 or 0.015 μg/ml (IKKε) and 0.1 or 0.02 μg/ml (TBK1) for the “normal” and “sensitized” assay, respectively, and “sensitized” assays were conducted using only dephosphorylated casein as substrate. Test compounds (or DMSO solvent as a control) were added prior to initiation of the reactions. Reactions were terminated after 30-45 minutes by adding 3% phosphoric acid. Terminated reactions were transferred to P-81 cellulose phosphate filterplates (Whatman, Inc., Piscataway, N.J.) and washed with 1% phosphoric acid on a vacuum apparatus. After air drying, scintillant (PerkinElmer, Waltham, Mass.) was added and the plates were read on a PerkinElmer TopCount NXT instrument. Counts were normalized to DMSO controls after background subtraction.

[1] = "sensitized" assay, read-out: IC50, inhibition of the kinase activity of IKKε
[2] = in-vitro IKKε kinase inhibition assays, given as 0.005 μM (5 nM), read-out: IKKε kinase inhibitory activity (IC50 value)

Row | Compound | IC50 [2] [nM] | IC50 [1] [nM]
1 | CC(=O)N(C)Cc1ccc(Nc2nccc(-c3ccc(OC4CCOCC4)c(C#N)c3)n2)cn1 [Example Compound 208, N-{[5-({4-[3-Cyano-4-(tetrahydro-2H-pyran-4-yloxy)phenyl]pyrimidin-2-yl}amino)pyridin-2-yl]methyl}-N-methylacetamide] | – | < 5
2 | CN(Cc1ccc(Nc2nccc(-c3ccc(OC4CCOCC4)c(C#N)c3)n2)cn1)C(=O)C1(O)CC1 [Example Compound 197, N-{[5-({4-[3-Cyano-4-(tetrahydro-2H-pyran-4-yloxy)phenyl]pyrimidin-2-yl}amino)pyridin-2-yl]methyl}-1-hydroxy-N-methylcyclopropanecarboxamide] | – | < 5
3 | N#Cc1cc(-c2ccnc(Nc3ccnc(CN4CCC(F)(F)C4)c3)n2)ccc1OC1CCOCC1 [Example Compound 220, 5-[2-({2-[(3,3-Difluoropyrrolidin-1-yl)methyl]pyridin-4-yl}amino)pyrimidin-4-yl]-2-(tetrahydro-2H-pyran-4-yloxy)benzonitrile] | – | < 5
4 | COCCNc1cc(Nc2nccc(-c3ccc(OC4CCOCC4)c(C#N)c3)n2)ccn1 [Example Compound 38, 5-[2-({2-[(2-Methoxyethyl)amino]pyridin-4-yl}amino)pyrimidin-4-yl]-2-(tetrahydro-2H-pyran-4-yloxy)benzonitrile] | < 5 | –
5 | N#Cc1cc(-c2ccnc(Nc3cncc(N4CCOCC4)n3)n2)ccc1OC1CCOCC1 [Example Compound 89, 5-(2-{[6-(Morpholin-4-yl)pyrazin-2-yl]amino}pyrimidin-4-yl)-2-(tetrahydro-2H-pyran-4-yloxy)benzonitrile] | < 5 | < 5
6 | Cn1cc(-c2cc(Nc3nccc(-c4ccc(O[C@@H]5CCN(C(=O)CO)C5)c(C#N)c4)n3)ccn2)cn1 [Example Compound 204, 2-{[(3R)-1-(Hydroxyacetyl)pyrrolidin-3-yl]oxy}-5-(2-{[2-(1-methyl-1H-pyrazol-4-yl)pyridin-4-yl]amino}pyrimidin-4-yl)benzonitrile] | – | < 5
7 | CC(=O)NCc1ccc(Nc2nccc(-c3ccc(OC4CCOCC4)c(C#N)c3)n2)cn1 [Example Compound 68, N-{[5-({4-[3-Cyano-4-(tetrahydro-2H-pyran-4-yloxy)phenyl]pyrimidin-2-yl}amino)pyridin-2-yl]methyl}acetamide] | < 5 | –
8 | C[C@@H](O)C(=O)N(C)Cc1ccc(Nc2nccc(-c3ccc(OC4CCOCC4)c(C#N)c3)n2)cn1 [Example Compound 198, (2R)-N-{[5-({4-[3-Cyano-4-(tetrahydro-2H-pyran-4-yloxy)phenyl]pyrimidin-2-yl}amino)pyridin-2-yl]methyl}-2-hydroxy-N-methylpropanamide] | – | < 5
9 | CC(=O)c1ccc(Nc2nccc(-c3ccc(OC4CCOCC4)c(C#N)c3)n2)cn1 [Example Compound 62, 5-{2-[(6-Acetylpyridin-3-yl)amino]pyrimidin-4-yl}-2-(tetrahydro-2H-pyran-4-yloxy)benzonitrile] | < 5 | –
10 | N#Cc1cc(-c2ccnc(Nc3ccc(-c4cn[nH]c4)nc3)n2)ccc1OC1CCOCC1 [Example Compound 188, 5-(2-{[6-(1H-Pyrazol-4-yl)pyridin-3-yl]amino}pyrimidin-4-yl)-2-(tetrahydro-2H-pyran-4-yloxy)benzonitrile] | – | < 5
11 | COc1cc(Nc2nccc(-c3ccc(OC4CCN(C(=O)CO)CC4)c(C#N)c3)n2)ccn1 [Example Compound 222, 2-{[1-(Hydroxyacetyl)piperidin-4-yl]oxy}-5-{2-[(2-methoxypyridin-4-yl)amino]pyrimidin-4-yl}benzonitrile] | – | < 5
12 | CN(Cc1ccc(Nc2nccc(-c3ccc(OC4CCOCC4)c(C#N)c3)n2)cn1)C(=O)C1(N)CC1 [Example Compound 196, 1-Amino-N-{[5-({4-[3-cyano-4-(tetrahydro-2H-pyran-4-yloxy)phenyl]pyrimidin-2-yl}amino)pyridin-2-yl]methyl}-N-methylcyclopropanecarboxamide] | – | < 5

Now from value to molecule, other results behind:

Row | IC50 [2] [nM] | Compound | IC50 [1] [nM]
13 | < 5 | N#Cc1cc(-c2ccnc(Nc3ccnc(CO)c3)n2)ccc1OC1CCOCC1 [Example Compound 66, 5-(2-{[2-(Hydroxymethyl)pyridin-4-yl]amino}pyrimidin-4-yl)-2-(tetrahydro-2H-pyran-4-yloxy)benzonitrile] | –
14 | < 5 | COC1CN(Cc2cc(Nc3nccc(-c4ccc(OC5CCOCC5)c(C#N)c4)n3)ccn2)C1 [Example Compound 69, 5-[2-({2-[(3-Methoxyazetidin-1-yl)methyl]pyridin-4-yl}amino)pyrimidin-4-yl]-2-(tetrahydro-2H-pyran-4-yloxy)benzonitrile] | –
15 | < 5 | COC1CN(c2cc(Nc3nccc(-c4ccc(NC(=O)C5CC5)c(C#N)c4)n3)ccn2)C1 [Example Compound 142, N-[2-Cyano-4-(2-{[2-(3-methoxyazetidin-1-yl)pyridin-4-yl]amino}pyrimidin-4-yl)phenyl]cyclopropanecarboxamide] | < 5
16 | < 5 | COC(=O)c1cc(Nc2nccc(-c3ccc(OC4CCOCC4)c(C#N)c3)n2)ccn1 [Example Compound 36, Methyl 4-({4-[3-cyano-4-(tetrahydro-2H-pyran-4-yloxy)phenyl]pyrimidin-2-yl}amino)pyridine-2-carboxylate] | –
17 | < 5 | COc1cc(Nc2nccc(-c3ccc(O[C@@H]4CCN(C(=O)CO)C4)c(C#N)c3)n2)ccn1 [Example Compound 121, 2-{[(3R)-1-(Hydroxyacetyl)pyrrolidin-3-yl]oxy}-5-{2-[(2-methoxypyridin-4-yl)amino]pyrimidin-4-yl}benzonitrile] | –
18 | < 5 | CC(O)c1ccc(Nc2nccc(-c3ccc(OC4CCOCC4)c(C#N)c3)n2)cn1 (stereo not drawn) [Example Compound 61, 5-(2-{[6-(1-Hydroxyethyl)pyridin-3-yl]amino}pyrimidin-4-yl)-2-(tetrahydro-2H-pyran-4-yloxy)benzonitrile] | –
19 | < 5 | N#Cc1cc(-c2ccnc(Nc3ccc(C(=O)N4CCN(CCO)CC4)s3)n2)ccc1OC1CCOCC1 [Example Compound 95, 5-{2-[(5-{[4-(2-Hydroxyethyl)piperazin-1-yl]carbonyl}thiophen-2-yl)amino]pyrimidin-4-yl}-2-(tetrahydro-2H-pyran-4-yloxy)benzonitrile] | < 5
20 | < 5 | CN(Cc1ccc(Nc2nccc(-c3ccc(OC4CCOCC4)c(C#N)c3)n2)cn1)S(C)(=O)=O [Example Compound 55, N-{[5-({4-[3-Cyano-4-(tetrahydro-2H-pyran-4-yloxy)phenyl]pyrimidin-2-yl}amino)pyridin-2-yl]methyl}-N-methylmethanesulfonamide] | –
21 | < 5 | CN(C)c1ccc(Nc2nccc(-c3ccc(OC4CCOCC4)c(C#N)c3)n2)cn1 [Example Compound 10, 5-(2-{[6-(Dimethylamino)pyridin-3-yl]amino}pyrimidin-4-yl)-2-(tetrahydro-2H-pyran-4-yloxy)benzonitrile] | < 5
22 | < 5 | N#Cc1cc(-c2ccnc(Nc3ccc(CNC(=O)N4CCOCC4)nc3)n2)ccc1OC1CCOCC1 [Example Compound 67, N-{[5-({4-[3-Cyano-4-(tetrahydro-2H-pyran-4-yloxy)phenyl]pyrimidin-2-yl}amino)pyridin-2-yl]methyl}morpholine-4-carboxamide] | –
23 | < 5 | COC1CN(C(=O)c2csc(Nc3nccc(-c4ccc(OC5CCOCC5)c(C#N)c4)n3)n2)C1 [Example Compound 104, 5-[2-({4-[(3-Methoxyazetidin-1-yl)carbonyl]-1,3-thiazol-2-yl}amino)pyrimidin-4-yl]-2-(tetrahydro-2H-pyran-4-yloxy)benzonitrile] | < 5
24 | < 5 | N#Cc1cc(-c2ccnc(Nc3ccnc(N4CCC[C@H]4CO)c3)n2)ccc1OC1CCOCC1 [Example Compound 40, 5-[2-({2-[(2S)-2-(Hydroxymethyl)pyrrolidin-1-yl]pyridin-4-yl}amino)pyrimidin-4-yl]-2-(tetrahydro-2H-pyran-4-yloxy)benzonitrile] | < 5
